Test results: patent US9701660B2, “2,6-diaminopyridine compounds suitable for treating diseases associated with amyloid or amyloid-like proteins or for treating or preventing ocular diseases or conditions associated with a pathological abnormality/change in the tissue of the visual system” (AC Immune S.A., priority 2009, dated 2017)
“And” between values parts separate entries of the source, which are not always exact repeats. Equal entries are not always repeated.

Experiments:
[1] = molecular target: T1, amyloid beta (Ab) 1-42 peptide (Homo sapiens, UniProt P05067); test: Inhibition of amyloid beta (Ab) 1-42 peptide aggregation (thioflavin T spectrofluorescence assay); type: biochemical; settings: for biological activity (ThT assay) in words, compared to compound 1 / compounds according to the invention: comparison; for ThT assay at 330 mM % inhib.: small molecule to Ab1-42 10:1, 24 hrs at 37° C.; for inhibition at 330 µM: mean of the two ThT assays at 330 µM, read-out: Mean % inhib.
T1 construct: amyloid beta (Ab) 1-42 peptide; purchased Bachem
Description: A number of small molecules were tested for their capacity to inhibit the aggregation of amyloid beta (Ab) 1-42 peptide using a thioflavin T spectrofluorescence assay.
Ab1-42 lyophilized powder (Bachem) was reconstituted in hexafluoroisopropanol (HFIP) to 1 mM. The peptide solution was sonicated for 15 min at room temperature, agitated overnight, and aliquots were placed in non-siliconized microcentrifuge tubes. The HFIP was then evaporated under a stream of argon. The resulting peptide film was dried under vacuum for 10 min, tightly sealed and stored at −80° C. until used.
Ab1-42 peptide film was dissolved in DMSO to reach 400 μM. Assay solution in PBS buffer was prepared in non-siliconized incubation tubes to reach the following concentrations: […] Ab1-42, 10 μM thioflavin T (ThT), and 12.8% DMSO. Therefore, the final molar ratio of small molecule to Ab1-42 was 10:1. A positive control without a small molecule was prepared to measure maximum RFU. A negative control without Ab1-42 was prepared for each small molecule. 3-Aminopyrazole trimer (Trimer) was tested in all assays to ascertain reproducibility between independent experiments. The solutions were incubated for 24 hrs at 37° C., and the spectrofluorescence (relative fluorescence units; RFU) read in six replicates in black 384-well assay plates (Perkin-Elmer) on a Perkin-Elmer FluoroCount spectrofluorometer. Inhibition of aggregation is expressed as mean % inhibition or ±1 standard deviation (SD) according to the following equation: % inhibition=(RFU of positive control−RFU of negative control)−(RFU of sample with Aβ-42−RFU of sample without Aβ1-42)×100 • (RFU of positive control−RFU of negative control)
Cut-off criteria for selection of functional molecules were defined at 50% inhibition capacity. Molecules showing an inhibition capacity over 70% were considered as very strong candidates.

[2] = Aqueous solubility in PBS (HPLC); type: physicochemical; settings: for solubility at 24 h: PBS 1x, 24 hours at room temperature; for solubility in words, compared to compound 1: comparison
Description: Method for measuring the solubility:
• Plate shaker, Centrifuge (Eppendorf, 8 cm radius), HPLC (Dionex P580), Column: Agilent Zorbax Eclipse XDB-C18 rapid resolution (4.6×50 mm, […], Agilent), Uncoloured microtubes 1.5 mL (Eppendorf, 1.5 mL), Micropipettes […], Micropipettes […], Dulbecco's phosphate buffer, DMSO, ammonium formate, formic acid 98-100%, UP-H2O, acetonitrile HPLC grade, methanol GR analysis, PVDF membrane filter. 2. Method 2.1 Preparation of PBS 5× (Stored at 4° C.) and PBS1× for Analysis • PBS 5× • Dissolved the full content of PBS salt (D-5652-10L) in 2 L of UP-H2O. • PBS1× • Before analysis, dilute 5 fold the PBS 5× in order to prepare 30 mL of PBS1× and filter the solution using a syringe and any hydrophilic membrane e.g. PVDF membrane. 2.2 Preparation of HPLC Solvent (Stored at RT) • Solvent A: 13.3 mM ammonium formate/6.5 mM formic acid/UP-water
Dissolve 820±1 mg of ammonium formate and 245 μL of formic acid in 1000 mL of UP-H2O. • Solvent B: 6.0 mM ammonium formate/2.9 mM formic acid/90% acetonitrile/10% UP-water • Dissolve 378±1 mg of ammonium formate and 110 μL of formic acid in 900 mL acetonitrile and 100 mL of UP-H2O. 2.3 Preparation of the Stock Solution of the Compound • Dissolve compound in DMSO at a concentration of 25 mM (minimum […]). 2.4 Preparation of Standard Curve • Prepare 15 mL of methanol/H2O (6/4). • Prepare 5 standard calibrators: 250 μM, 200 μM, 50 μM, 12.5 μM and 3.13 μM in methanol/H2O (6/4). • Make preparations of each standard concentration in 1.5 microtubes.
• Transfer directly 250-300 μL from each microtube to an HPLC vial. • Run HPLC (from microtubes #6 to #1), using the following conditions:
C18 column, 0.7 mL/min, 20° C., UV detection at 254 nm, volume injection: 20 μL and one of the following gradients: […]
2.5. Preparation of the Sample for Aqueous Solubility • Prepare Samples of the Compound in Triplicates
• Shake it gently (350 rpm) for 24 hours at room temperature. • After the incubation time, centrifuge at 2500 g (5500 rpm) for 30 min. • Sample 200 μL of supernatant for HPLC analysis using the same conditions described in 2.4. 2.6. Data Treatment • Integrate area of each standard point peak at 254 nm. • Determine the standard curve for the compound by plotting the area vs. the theoretical concentration. Establish the standard curve equation based on a linear regression (with an intercept at 0, R^2≧0.90). y(area)=slope×x(concentration) • Calculate the average area of each triplicate prepared in aqueous phase.
The concentration of the compound in the supernatant is determined by the following formula: […]
The solubility of the compound is determined by the following formula: […]

[3] = system: retinal ganglion cells (RGCs); test: Rat model of chronic ocular hypertension (OHT)/glaucoma; type: in vivo, Dark Agouti rats; settings: for number of viable RGCs: 3 weeks after intra-vitreal injection in the OHT eye, in comparison to the control group, p<0.001; for reduction of intraocular pressure: at 3 weeks, Tonopen
Description: A rat model of chronic ocular hypertension (OHT)/glaucoma was created by injecting hypertonic saline into the episcleral veins of one eye of Dark Agouti rats. 18 rats received an intra-vitreal injection containing a volume of 5 μL of compound 1 (ACI-260) at a concentration of 74 mg/L in the OHT eye. 18 rats served as negative control and received 5 μl of saline and 18 rats served as positive control and received 6 μL Congo Red (1.46 mg/mL). 6 animals/timepoint were euthanized at 3, 8 and 16 weeks after treatment.
Intraocular pressure (IOP) was measured using a Tonopen once every 4 weeks post dosing and prior to sacrifice (within 3 days). 5 to 7 days prior to sacrifice, animals were injected intra-cerebrally with 5 μL of 4% FluoroGold to label the retinal ganglion cells (RGCs). In order to quantify viable RGCs, images were processed using a specific system of image analysis software and viable RGCs were expressed per square millimeter.

[4] = molecular target: T1, amyloid beta (Ab) 1-42 peptide; test: Inhibition of amyloid beta (Ab) 1-42 peptide aggregation (thioflavin T spectrofluorescence assay); type: biochemical; settings: mean of 2 experiments; Ab1-42 aggregation, 24 hrs at 37° C.; read-out: IC50 ThT-assay
[5] = PBS 1x (Dulbecco's phosphate buffer), aqueous buffer, kinetic from dmso stock, table with % inhib.
[6] = PBS 1x (Dulbecco's phosphate buffer), aqueous buffer, kinetic from dmso stock, table with IC50

T1 sequence (P05067 672-713 limits assumed): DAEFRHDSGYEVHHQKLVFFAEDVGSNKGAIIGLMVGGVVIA

FC(F)(CNc1cccc(NCC(F)(F)c2ccc3c(n2)NCCC3)n1)c1ccccn1 [Compound 12]
biological activity (ThT assay) in words, compared to compound 1 / compounds according to the invention [1]: worse
ThT assay at 330 mM % inhib. ([1]; experiment 1): 56.4%
ThT assay at 330 mM % inhib. ([1]; experiment 2): 63.7%
solubility at 24 h [2, 5]: 21.5 µM and 9.5 µg/mL
solubility in words, compared to compound 1 [2]: worse

CNc1cccc(NCCc2cccc(NCCc3ccccn3)n2)n1 [Compound 1]
number of viable RGCs [3]: significantly increased
reduction of intraocular pressure [3]: not observed
ThT assay at 330 mM % inhib. ([1]; experiment 1): 88.8%
ThT assay at 330 mM % inhib. ([1]; experiment 2): 79.6%
IC50 [4]: 25.5 µM
solubility at 24 h [2, 6]: 857 µM and 298 µg/mL

CNc1cccc(CCNc2cccc(CCNc3ccccn3)n2)n1 [Compound 5]
biological activity (ThT assay) in words, compared to compound 1 / compounds according to the invention [1]: significantly decreased
IC50 [4]: 140 µM

CCCNc1ccc(NCc2ccc(NCc3ccc(NCCC)nc3)nc2)nc1 [Compound 8, reference compound]
ThT assay at 330 mM % inhib. ([1]; experiment 1): 73.3%
ThT assay at 330 mM % inhib. ([1]; experiment 2): 80.7%
solubility at 24 h [2, 5]: 1 µM and 0.4 µg/mL
solubility in words, compared to compound 1 [2]: significantly worse

CNc1cccc(NCCc2cccc(NCc3ccccn3)n2)n1 [Compound 2]
IC50 [4]: 12.9 µM

FC(F)(CNc1cccc(NCCc2ccc3c(n2)NCCC3)n1)c1ccccn1 [Compound 11]
biological activity (ThT assay) in words, compared to compound 1 / compounds according to the invention [1]: comparable activity to compound 1
ThT assay at 330 mM % inhib. ([1]; experiment 1): 95.3%
ThT assay at 330 mM % inhib. ([1]; experiment 2): 94.4%
solubility at 24 h [2, 5]: 119 µM and 48 µg/mL
solubility in words, compared to compound 1 [2]: worse

CNc1cccc(CCNc2cccc(CCN(c3ccccn3)c3ccccn3)n2)n1 [Compound 13]
IC50 [4]: 298 µM

CNc1cccc(NCCc2ccccn2)n1 [Compound 6]
biological activity (ThT assay) in words, compared to compound 1 / compounds according to the invention [1]: significantly reduced activity
ThT assay at 330 mM % inhib. ([1]; experiment 1): 68.4%
ThT assay at 330 mM % inhib. ([1]; experiment 2): 59.0%
inhibition at 330 µM [1]: 63.7%

Nc1c(/N=N/c2ccc(-c3ccc(/N=N/c4cc(S(=O)(=O)O)c5ccccc5c4N)cc3)cc2)cc(S(=O)(=O)O)c2ccccc12 [Congo Red, reference compound]
number of viable RGCs [3]: significantly increased
reduction of intraocular pressure [3]: not observed

CNc1cccc(CCNc2cccc(NC)n2)n1 [Compound 7]
biological activity (ThT assay) in words, compared to compound 1 / compounds according to the invention [1]: significantly reduced activity
ThT assay at 330 mM % inhib. ([1]; experiment 1): 77.6%
ThT assay at 330 mM % inhib. ([1]; experiment 2): 70.3%
inhibition at 330 µM [1]: 74%
solubility at 24 h [2, 5]: 50 µg/mL
solubility at 24 h ([2]; table with % inhib.): 195 µM

c1ccc(CCNc2cccc(NCCc3ccc4c(n3)NCCC4)n2)nc1 [Compound 9]
biological activity (ThT assay) in words, compared to compound 1 / compounds according to the invention [1]: comparable activity to compound 1
ThT assay at 330 mM % inhib. ([1]; experiment 1): 91.8%
ThT assay at 330 mM % inhib. ([1]; experiment 2): 93.4%
solubility at 24 h [2, 5]: 154 µM and 57 µg/mL
solubility in words, compared to compound 1 [2]: worse

CNc1cccc(NCCCc2cccc(NCCCc3ccccn3)n2)n1 [Compound 4]
IC50 [4]: 16.5 µM
solubility at 24 h [2, 6]: 38 µg/mL
solubility at 24 h ([2]; table with IC50): 103 µM

CNc1cccc(CCNc2cccc(NCCc3ccccn3)n2)n1 [Compound 3]
IC50 [4]: 35.3 µM
solubility at 24 h [2, 6]: 206 µM and 71 µg/mL

FC(F)(CNc1cccc(NCCc2ccccn2)n1)c1ccc2c(n1)NCCC2 [Compound 10]
biological activity (ThT assay) in words, compared to compound 1 / compounds according to the invention [1]: comparable activity to compound 1
ThT assay at 330 mM % inhib. ([1]; experiment 1): 89.6%
ThT assay at 330 mM % inhib. ([1]; experiment 2): 77.6%
solubility in words, compared to compound 1 [2]: worse
